Data published in patent publication US20230073946A1, “AFFINITY PEPTIDE […] A[…] PROTECTION OF PROTEINS FROM OXIDATION” (ARIZONA BOARD OF REGENTS ON BEHALF OF THE UNIVERSITY OF …, priority 2020, published 2023).
“Also recorded” adds a separate entry of the source.

Legend:
sugen/hypoxic PAH model = conditions: cited from earlier work
HPASMCs [1] = test: Seahorse mitostress assay (OCR); assay type: cell-based, human; conditions: SIN-1 treatment
Protocol: (§1) For the glycostress Seahorse assay, human pulmonary artery smooth muscle cells (HPASMCs) were seeded in a 24 well Seahorse cell culture microplate at 50000/well and kept overnight to form a monolayer. On the day of experiment, the media was aspirated and cells were incubated at 37° C. in a non-CO2 incubator for 1 hour with 0.5 mL XF base medium (cat #102353-100, Agilent, Santa Clara, Calif.) supplemented with 2 mM glutamine. Glucose (56 μL, 100 mM), Oligomycin (62 μL, 100 μM) and 2-deoxyglucose (69 μL, 500 mM) was added to the flux pack wells (cat #102342-100, Agilent, Santa Clara, Calif.). ECAR (extracellular acidification rate) was then measured using Seahorse Bioscience XFe24 extracellular flux analyzer (Agilent, Santa Clara, Calif.) according to the manufacturer's protocol. For the mitostress assay, cells were prepared like the glycostress assay with the exception that the XF base incubation media was supplemented with pyruvate (1 mM), glutamine (2 mM) and glucose (10 mM). Oligomycin (56 μL, 10 μM), FCCP (62 μL, 10 μM) and Rotenone+Antimycin-A (69 μL, 5 μM) were added to the flux pack wells. OCR (oxygen consumption rate) was then identified according to the manufacturer's protocol. Data was normalized to cell number as determined by flow cytometry. All the chemicals used for these experiments, unless specified, were procured from Sigma-Aldrich.

HPASMCs [2] = test: Seahorse glycostress assay (ECAR); assay type: cell-based, human; conditions: SIN-1 treatment
Protocol: as §1

sugen/hypoxia PAH model [3] = test: Hemodynamic measurement (RVSP, Fulton index), sugen/hypoxia PAH model; assay type: in vivo, rat; conditions: SU2 rats, NP 0.1 mg/kg/day i.v. two-weeks
Protocol: Animals were anesthetized with inactin 100 mg/kg intraperitoneally (i.p.) (T133, Sigma-Aldrich). A customized pressure transducer catheter (SPR-513, Millar Instruments, Houston, Tex.) was inserted into RV via the right jugular vein and advanced into the right ventricle to monitor right ventricular systolic pressure (RVSP) as described previously. Briefly, the pressure transducer catheter was connected to a Millar Transducer Control Unit TC-510 and PL3504 PowerLab 4/35 data acquisition system (AD Instruments, Colorado Springs, Colo.) to monitor RV pressure for 30-min. After this a tracheal catheter was connected to a ventilator system (Harvard Rodent Ventilator-683; Harvard Apparatus, South Natick, Mass.), the thorax was opened, and the lungs flushed with 0.9% sodium chloride through the right ventricle (RV). Heart and lungs were collected from animals; the RV free wall was separated from the left ventricle (LV), and the septum (5). Fulton index (RV/LV+S ratio) as a parameter of RV hypertrophy was calculated. The total wet lung weight was measured and normalized by the body weight of the animal. The left lung was fixed in formalin and embedded in paraffin for histological examination. The other portion of the lung was stored at −80° C. for further biochemical studies.

PDH = test: Pyruvate dehydrogenase assay in lung tissue; assay type: in vivo, rat; conditions: SU2 rats, NP treatment
Protocol: Lung tissue was lysed using RIPA buffer and the lysate was used for the PDH activity. PDH activity was measured with PDH Activity Assay Kit (MAK183, Sigma-Aldrich) per the manufacturer protocol.

LDH = conditions: SU2 rats, NP treatment, lung tissue
Protocol: Female Sprague Dawley rats (200-250 g) obtained from Charles River (Wilmington, Mass., USA) were used in this study. […] Generally, PAH was induced by a single injection of SU5416 (50 mg/kg) subcutaneously, followed by 3 weeks of hypoxia (10% 02) and 2 weeks of normoxia. This study included five animal groups: control group; SU1, rats were analyzed after 1 week of SU5416 and hypoxia treatment; SU2, rats were analyzed after 2 weeks of SU5416 and hypoxia treatment; SUS, rats were analyzed after 5 weeks of SU5416 treatment (3 weeks of hypoxia with a following 2 weeks of normoxia); and SU2+NP peptide treatment 0.1 mg/kg/day intravenous (i.v.) injection started with SU5416 treatment for two-weeks.
LDH activity in lung tissue was assessed by Lactate Dehydrogenase Activity Colorimetric Assay Kit (K726, BioVision Inc. Calif., USA) according to manufacturer's instruction. All values were normalized with respect to protein concentrations as determined by the Pierce™ BCA Protein Assay Kit (Thermo Scientific, Rockford, Ill.).

Akt (Y350 nitration) = target: T1, Akt (Y350 nitration) (Homo sapiens, UniProt P31749); test: Sin-1 induced Akt nitration assay in HPAECs; assay type: cell-based; conditions: 1 μM NP pretreatment 30 min, washed, then SIN-1 1 mM 1 hour
T1 construct: endogenous in cells; host or cells: HPAEC (human pulmonary artery endothelial cells)
Protocol: Human pulmonary artery endothelial cells (HPAECs) were cultured using an endothelium media specific for HPAEC with 10% FBS. Cells were used from passages 3-6. All experiments were performed on 80-90% confluent cells. Akt nitration was induced by treatment with 3-Morpholinosyndnomine (SIN-1) (1 mM) for 1 hour. NP pretreatment groups were treated with 1 μM NP for 30 min, and then cells were washed in PBS and treated with SIN-1 for 1 hour. All treatments were accompanied by including controls with the corresponding vehicle. After treatment, the cells were washed in PBS and lysed in a RIPA buffer containing protease and phosphatase inhibitor cocktail.
For an analysis of the total lung protein, lung tissues were lysed as previously described. Briefly, 20-40 mg of lung tissue (human/rat) was lysed in Permeabilization Buffer mixed with protease and phosphatase inhibitor cocktails using a Fisher Homogenizer 850. […] The protein concentration was measured using the BCA protein assay kit (Thermo Scientific, Rockford, Ill.). […] Since the quantification of the Akt nitration is not fully established by mass spectrometry, a common method was used by newly developed antibodies for the quantification of specific Y350 nitration of Akt. The reactive bands were visualized by chemiluminescent ChemiDoc™ MP Imaging System (Bio-Rad Laboratories Inc., Hercules, Calif.) and analyzed using Image Lab™ software. […]

sugen/hypoxia PAH model [4] = test: Metabolic intermediates analysis of lung lysate (PCA); assay type: in vivo, rat; conditions: SU2+NP versus SU2
Protocol: Data were acquired using the West Coast Metabolomics Center at UC Davis. Briefly, Restek corporation Rtx-5Sil MS column was used with helium mobile phase at temperature interval (50-330° C.) and flow-rate: 1 mL min-1. Injection volume was 0.5 μL at 50° C. ramped to 250° C. by 12° C. s-1. Oven temperature started at 50° C. for 1 min, then ramped at 20° C. min-1 to 330° C., and held constant for 5 min. Mass spectrometry analysis was done on a Leco Pegasus IV mass spectrometer with unit mass resolution at 17 spectra s-1 from 80-500 Da at −70 eV ionization energy and 1800 V detector voltage with a 230° C. transfer line and a 250° C. ion source. Raw data files were preprocessed directly after data acquisition and stored as ChromaTOF-specific*.peg files, as generic*.txt result files and additionally as generic ANDI MS*.cdf files. ChromaTOF vs. 2.32 was used for data preprocessing without smoothing, 3s peak width, baseline subtraction just above the noise level, and automatic mass spectral deconvolution and peak detection at signal/noise levels of 5:1 throughout the chromatogram. Apex masses were reported for use in the BinBase algorithm. Result*.txt files were exported to a data server with absolute spectra intensities and further processed by a filtering algorithm implemented in the metabolomics BinBase database.

sugen/hypoxia PAH model [5] = test: Histological analysis of pulmonary arteries (EVG, Ki-67), sugen/hypoxia PAH model; assay type: in vivo, rat; conditions: SU2 rats, NP 0.1 mg/kg/day i.v. two-weeks
From the text: For the morphometric assessment of pulmonary vessels 5-μm tissue sections were dewaxed and stained with elastic fibers—Verhoeffs van gieson (EVG) by HistoWiz Inc. (Brooklyn, N.Y.) using standard operating procedures and a fully automated workflow system. Ten transversely sectioned pulmonary arteries (diameter<300 μm) within each category per each animal (N=6 per group) were randomly selected from the whole-slide 40X digitized image Aperio AT2 scanner (Leica Biosystems, Ill.). Immunohistochemistry was performed using standard protocols. The sections were deparaffinized and incubated with primary antibodies against Akt Y350 NO2 (1:100), and Ki67 (1:800) (ab15580 Abcam); Dab Rabbit H1 (pH 6) for 20 min. The morphometric analysis was done by an investigator by a blinded grouping fashion. The wall thickness of the pulmonary artery (PA) was measured using the publicly available software Fiji is just ImageJ (http://fiji.sc/Fiji; in the public domain).

sugen/hypoxia PAH model [6] = test: Western blot of metabolic proteins in lung tissue, sugen/hypoxia PAH model; assay type: in vivo, rat; conditions: SU2 rats
Protocol: (§2) For an analysis of the total lung protein, lung tissues were lysed as previously described. Briefly, 20-40 mg of lung tissue (human/rat) was lysed in Permeabilization Buffer mixed with protease and phosphatase inhibitor cocktails using a Fisher Homogenizer 850. The homogenate was centrifuged at 10,000 g for 10 min, and the supernatant was carefully collected. Cell membrane and cytosolic fractions were isolated using FractionPREP™ cell fraction kit (Biovision, Milpitas, Calif.) according to manufacturer's instruction. The protein concentration was measured using the BCA protein assay kit (Thermo Scientific, Rockford, Ill.). Samples were incubated with 6×Laemmli sample buffer (Boston Bioproducts Inc., Ashland, Mass.), for 5 min at 95° C., loaded on the 4-20% SDS-PAGE Mini-PROTEAN TGX Stain-Free™ gels (Bio-Rad Laboratories Inc., Hercules, Calif.) and separated by electrophoresis. Protein bands were transferred using Trans-Blot Turbo transferring system (Bio-Rad Laboratories Inc.) and then blocked with 5% bovine serum albumin in Tris-buffered saline. Membranes were probed using antibodies against Glut 4 (07-1404) from Millipore, pyruvate carboxylase (PC) (Ab229267) & peroxisome proliferator-activated receptor gamma coactivator 1-alpha (PGC-1α) (Ab191838) from Abcam, pyruvate dehydrogenase (PDH) (45-6600) from Invitrogen, phospho Akt (Ser 473) (4060S), Akt (9272S), hexokinase 1 (HK1) (C35C4), glyceraldehyde-3 phosphate dehydrogenase (GAPDH) (2118S), lactate dehydrogenase-A (LDHA) (2012S), phospho glycogen synthase kinase (GSK) 3 β (Ser9) (9336S), GSK3 β(9315S) and glucose 6-phosphate dehydrogenase (G6PD) (8866S) from Cell Signaling Technology. Mouse monoclonal anti-nitrotyrosine antibodies were obtained from Calbiochem, La Jolla, Calif. (487923). Akt Y350 NO2 antibody obtained as a custom-made antibody against Akt1-nitro (341-353) and the sequence was CGRLPF-nitroY-NQDHEK (SEQ ID NO: 2). Two peptides were developed with and without Y350 nitration. The antibody developed against nitrated peptide cleaned using non-nitrated peptide (Akt1 (341-353): […], SEQ ID NO: 3) to remove nonspecific antibodies. Affinity purification was done using large reusable affinity purification columns against the unmodified and nitrated peptides. […] Since the quantification of the Akt nitration is not fully established by mass spectrometry, a common method was used by newly developed antibodies for the quantification of specific Y350 nitration of Akt. The reactive bands were visualized by chemiluminescent ChemiDoc™ MP Imaging System (Bio-Rad Laboratories Inc., Hercules, Calif.) and analyzed using Image Lab™ software. The protein loading was normalized per total sample protein as fold control using stain free gels as previously described. This normalization is equal to housekeeping genes normalization and rigorously evaluated by Bio-Rad company (http://www.bio-rad.com/en-us/applications-technologies/stain-free-imaging-technology?ID=NZ0G1815) and others in comparison with beta-actin normalization.

Akt [7] = test: Western blot of Akt nitration, phosphorylation and total nitration in lung lysate, sugen/hypoxia PAH model; assay type: in vivo, rat; conditions: SU2 rats, NP 0.1 mg/kg/day i.v. two-weeks
Protocol: as §2, with “antibodies.” for “antibodies. Affinity purification was done using large reusable affinity purification columns against the unmodified and nitrated peptides.”, “The protein loading was normalized per total sample protein as fold control using stain free gels as previously described.” left out

Akt [8] = target: T2, Akt (Rattus norvegicus, UniProt P47196); test: as above; assay type: in vivo; conditions: sugen/hypoxia rats two-weeks (SU2), NP 0.1 mg/kg/day i.v.
T2 construct: nitro Akt, phospho Akt and total Akt expression in the lung lysate; from tissue; host or cells: rat lung (Sprague Dawley, sugen/hypoxia model)
Protocol: as §2, with “antibodies.” for “antibodies. Affinity purification was done using large reusable affinity purification columns against the unmodified and nitrated peptides.”, “The protein loading was normalized per total sample protein as fold control using stain free gels as previously described.” left out

T2 sequence (P47196 whole entry): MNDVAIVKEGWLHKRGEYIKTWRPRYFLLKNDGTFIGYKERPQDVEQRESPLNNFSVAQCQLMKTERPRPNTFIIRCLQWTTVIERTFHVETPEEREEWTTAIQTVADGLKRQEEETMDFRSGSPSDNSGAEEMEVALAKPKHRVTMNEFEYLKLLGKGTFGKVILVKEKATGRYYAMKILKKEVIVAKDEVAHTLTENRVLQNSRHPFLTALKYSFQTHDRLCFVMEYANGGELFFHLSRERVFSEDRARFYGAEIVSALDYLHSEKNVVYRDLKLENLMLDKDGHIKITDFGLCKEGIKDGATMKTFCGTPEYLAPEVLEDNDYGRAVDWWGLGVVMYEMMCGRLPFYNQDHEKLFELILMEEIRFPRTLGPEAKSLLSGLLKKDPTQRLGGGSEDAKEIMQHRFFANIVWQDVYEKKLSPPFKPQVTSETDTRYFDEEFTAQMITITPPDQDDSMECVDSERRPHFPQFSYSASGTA
T1 sequence (P31749 whole entry): as the sequence (P47196 whole entry) above, with N2S, E46D, S50A, R112K, T117E, A137S, T389K, N410G, D415H counted along it

## CC1(C)CC(O)CC(C)(C)N1[O] [TEMPOL]
sugen/hypoxic PAH model; recently reported
  preventing pulmonary arterial remodeling: not effective
sugen/hypoxic PAH model; sugen/hypoxic PAH model, reported
  right ventricular hypertrophy and pulmonary arterial remodeling: failed to attenuate

## NP: peptide Ser-Arg-IIe-Arg-Ser (SEQ ID NO: 1) with nitroxide (3-Carboxy-2,2,5,5-tetramethyl pyrroline-1-yloxy) covalently attached to the free N-terminal amine
HPASMCs [1]
  basal respiration rate: without affecting
  mitochondrial oxidative phosphorylation rate (OCR): upregulated the oxidative phosphorylation rate to control level
HPASMCs [2]
  Glycolytic capacity: attenuated
  glycolysis (glycolytic rate, ECAR): attenuated this back to control level
sugen/hypoxia PAH model [3]
  Fulton index (RV/LV+S), RV hypertrophy: markedly decreased; also recorded: reversed
sugen/hypoxia PAH model [3]; SU2 without NP 71.9±3.6, p<0.001
  right ventricular systolic pressure (RVSP): 36.1±2.6
PDH
  PDH activity: increased
LDH
  LDHA activity: attenuating
Akt (Y350 nitration)
  reduction of Akt nitration (Y350): 55%
sugen/hypoxia PAH model [4]
  metabolites significantly restored by treatment: 30 metabolites
sugen/hypoxia PAH model [5]
  EVG staining: perivascular fibrosis, vasoconstriction and proliferation in pulmonary arteries: significantly attenuated
  vascular remodeling and cellular proliferation (Ki-67 staining): effectively prevented
sugen/hypoxia PAH model [6]; NP 0.1 mg/kg/day i.v. two-weeks
  pyruvate carboxylase (PC) expression: decreased
sugen/hypoxia PAH model [6]; NP treatment
  G6PD expression: upregulated significantly
  GSK3β expression: reversed
  Glut4 translocation to membrane (membrane/cytosol ratio): attenuated
  LDHA expression: attenuating
  PDH expression: significantly increased
  PGC1α expression: significantly reduced
Akt [7]; lung lysate
  Phosphorylation of Akt at Ser-473: does not affect
  total Akt expression: did not change
Akt [7]; selectivity toward Akt nitration
  total nitration in lungs: did not significantly alter
Akt [8]
  nitroAkt modification in the lung tissue: significantly reduced; also recorded: remarkable reduction
